# Experimental data published in patent publication US9045505B2, “Nitric oxide donors” (University of Otago, priority 2006, dated 2015).
# Columns and labels:
# liver mitochondria = assay: Metabolism of MitoSNAP by mitochondria (RP-HPLC of supernatant); assay type: in vitro ADME, rat
# Experimental: FIG. 9 is a series of traces and graphs showing membrane potential-dependent MitoSNAP mitochondrial uptake and NO^• generation. (a-d) Liver mitochondria were incubated in KCl medium supplemented with rotenone in a stirred 3 ml chamber and electrodes were used to measure the concentrations of O2 and NO^• simultaneously. Where indicated succinate (10 mM), OxyHb (5 μM) or FCCP (500 nM) were added. For (a) and (b) 2 mg mitochondrial protein/ml and 20 μM MitoSNAP (a) or SNAP (b) were used. For (c) and (d) 0.5 mg mitochondrial protein/ml and 5 μM MitoSNAP were used. There was no effect of 5 μM MitoNAP on respiration or NO^• production. All traces are from typical experiments repeated at least twice. […] Mitochondria were then pelleted by centrifugation (10,000×g) then aliquots of the supernatant (700 μl) were mixed with 700 μl 0.1% TFA and analyzed by RP-HPLC. The amount of MitoSNAP and MitoNAP were calculated as the percentage of their peak areas relative to the sum of both peak areas.
# MitoSNAP, MitoNAP and their derivatives were separated by reverse phase HPLC (RP-HPLC) on a C18 column (Jupiter 300 Å, Phenomenex) with a Widepore C18 guard column (Phenomenex), using a Gilson 321 pump. […] Peaks were detected at 220 nm using a Gilson UV/VIS 151 spectrophotometer. […]
# [1] = tested on: Langendorff-perfused mouse hearts; assay: Cardiac ischemia-reperfusion injury in Langendorff-perfused mouse hearts (ex vivo)
# Experimental: FIG. 16 is a series of graphs showing the vasodilatory and tissue protective effects of MitoSNAP. (a) Dose-response curves for the effect of MitoSNAP and related compounds on blood vessel relaxation. The effects of intact or decomposed MitoSNAP and SNAP on pre-contracted rat thoracic aorta mounted in a myograph were determined Data represent means±sem. For MitoSNAP n=8 from experiments on two independent rat aorta preparations. For decomposed MitoSNAP and SNAP experiments the data (n=4) are from one aorta preparation. (b) EC50 for the effect of MitoSNAP and SNAP on blood vessel relaxation. The EC50 values were determined from experiments shown in (a) above. ***p<0.001 by Student's unpaired t-test. (c & d) MitoSNAP protects against I/R injury in Langendorff-perfused mouse hearts. Hearts from C57BL6 mice were Langendorff perfused and subjected to 25 min global normothermic ischemia followed by 1 h of reperfusion. MitoSNAP or MitoNAP (100 nM final), or vehicle carrier, was added via an infusion port above the aortic cannula during reperfusion. Hearts were then stained with 2,3,5-triphenyltetrazolium chloride (TTC) to visualize infarct. (c) Protection of heart function by MitoSNAP during I/R injury. Left ventricular contractile function was recorded throughout the I/R protocol.
# FIG. 18 is a graph showing the effect of pre-ischemic administration of MitoSNAP or MitoNAP on recovery of heart function (rate pressure product) from IR injury. Experiments were carried out exactly as described in FIGS. 16c & 16d, except that MitoSNO1 or MitoNAP were infused into the heart for 20 min, followed by a 2 min wash-out period, prior to the onset of ischemia. White symbols=vehicle control, black symbols=MitoSN01, gray symbols=MitoNAP. Data are means±sem, n≧6. […]
# There is considerable evidence pointing to mitochondrial damage during the reperfusion phase of cardiac ischemia-reperfusion (I/R) injury. […] Therefore we determined if MitoSNAP could decrease I/R injury in a mouse heart Langendorff model (FIGS. 16c & d). […]
smiles,measurement,setting,value
"CC(=O)NC(C(=O)NCCCCC[P+](c1ccccc1)(c1ccccc1)c1ccccc1)C(C)(C)SN=O.CS(=O)(=O)[O-] (centres unmarked) [MitoSNAP, [5-(2-acetylamino-3-methyl-3-nitrosothio-butyrylamino)-penty1]-triphenylphosphonium methanesulfonate]",conversion of MitoSNAP to MitoNAP,liver mitochondria; energized mitochondria,rapidly consumed
same,conversion of MitoSNAP to MitoNAP,"liver mitochondria; unenergized mitochondria (FCCP), compared with energized",slower
same,infarct size,[1]; 100 nM during reperfusion,decrease in infarct size
same,recovery of heart function (rate pressure product),"[1]; 100 nM during reperfusion, 25 min ischemia, 1 h reperfusion",better recovery of heart function
same,protection against I/R injury,[1]; delivered before the I/R injury,small degree of protection
